Data published in patent US10239871B2, “Compounds and methods for regulating integrins” (ADHAERE PHARMACEUTICALS, INC., priority 2012, dated 2019).

What was measured:
[1] = system: balloon-induced arterial injury; assay: Balloon-induced arterial injury in rats (neointima); format: in vivo, rat
Protocol: All surgeries were performed under anesthesia by isoflurane (Baxter). Activating mAb ED7 (4 mg/kg/d), the isotype control mIgG1 (4 mg/kg/d, Rockland) and the leukadherin LA1 (1 mg/kg/d) were each administered intra peritoneally (i.p.) in saline daily until the end of the experiment. Balloon injury in the right iliac artery was inflicted with a 2F Fogarty catheter (Baxter) adapted to a custom angiographic kit (Boston Scientific, Scimed). An aortotomy in the abdominal aorta was made to insert a catheter to the level of the right iliac artery. The balloon was inflated to 1.5 to 1.6 atmospheres and retracted to the arteriotomy site three times. The aortic excision was repaired with eight sutures. The abdominal cavity was closed by planes with an interrupted suture pattern. Arterial specimens were collected 21 days after injury and fixed in 4% formalin-PBS (Sigma-Aldrich) for 5 minutes and analyzed by histology and immunostaining. Neointima were measured in H&E stained slides using ImagePro.
Despite significant technological advances in PCI, restenosis (re-narrowing) secondary to neointimal hyperplasia remains a major complication limiting the success of coronary interventions in 5-25% of patients. The recruitment of inflammatory macrophages and other leukocytes precedes neointimal hyperplasia. The denudation of endothelial cell lining at the site of mechanical vascular injury during a PCI procedure leads to the deposition of fibrin and platelets, where selective binding between the platelet cell surface receptor GP lb[…] and leukocytic CD11b/CD18 leads to the migration and recruitment of these inflammatory cells. Indeed, in experimental models, it has been shown that the genetic ablation of CD11b (CD11b−/− animals) or its blockade (using biological antagonists) can reduce neointima formation after angioplasty or stent implantation. […] Here, this experimental arterial balloon injury model was used to examine the relative efficacy of the two types of agonists, in a head-to-head comparison, on inflammatory responses in vivo. First, the dose-dependence of LA1 in this model system was determined. LA1 was administered at two different doses (0.05 or 1 mg/kg/d, intraperitoneal (i.p.)), or the vehicle (DMSO), in a saline solution to SD male rats 30 minutes prior to injury and continued daily injections for the next three weeks and subsequently measured the extent of vascular injury via tissue histology (FIGS. 14A-14D). Data shown are mean±SEM. *p<0.05, **p<0.001.
Next, in order to examine the relative efficacy of LA1 and ED7, LA1 (1 mg/kg/d) or ED7 (4 mg/kg/d) were administered to SD male rats 30 minutes prior to balloon injury and continued daily for the next 21 days. An isotype control antibody (mIgG1, 4 mg/kg/d) was administered to the control group of animals. […] Data shown are mean±SEM. *p<0.05, ***p<0.0001, ns=not significant.

[2] = LA1 concentration in mouse blood after PO and IP dosing (LC-MS); format: in vivo; conditions: 10 mg/kg, mice
CD11b/CD18 = CD11b/CD18 (Homo sapiens, UniProt P11215); assay: Cell adhesion assay, K562 WT cells on immobilized fibrinogen; format: cell-based; parameters: K562 cells stably transfected with plasmid encoding wild-type integrin CD11b/CD18; expressed in transfected cells; conditions: vs basal Ca2+ plus Mg2+ (1 mM each); leukadherins 15 μM, mAbs 20 μg/mL, Mn2+ 1 mM
Protocol: K562 cells stably transfected with plasmid encoding wild-type integrin CD11b/CD18 (K562 WT cells) have been described previously and were maintained in Iscove's Modified Dulbecco's Medium (IMDM) supplemented with 10% FBS and G418 (0.5 mg/ml). The murine macrophage cell line (RAW 264.7 cells) was obtained from ATCC and the cells were maintained in DMEM supplemented with 10% heat-inactivated FBS according to the manufacturer's instructions. The primary rat peritoneal macrophages were isolated from the wild type Fisher 344 rats that had been previously injected with 5 mL of Brewer's thioglycolate broth (Sigma-Aldrich). Macrophage purity was directly analyzed by single channel flow cytometry using rat macrophage specific monoclonal antibodies ED1 (AbD Serotec, Raleigh, N.C.), WT.5 (BD Biosciences) and His36 (BD Biosciences). Purity was typically >85%. Macrophages were used in assays immediately upon isolation.
Cell adhesion assays using K562 WT, murine RAW 264.7 cells and the primary rat macrophages were performed as previously described and used immobilized fibrinogen as the ligand of CD11b/CD18 [49]. […] The remaining adherent cells were fixed using 4% formaldehyde and quantified by imaging microscopy as previously described (22, 63). […]

Diabetic nephropathy = Diabetic nephropathy model (BTBR ob/ob mouse); format: in vivo
Protocol: The efficacy of LA1 was tested in an experimental model of Diabetic nephropathy (DN), where inflammation plays a major role. It was surmised that reducing leukocyte activation, recruitment and influx can be a beneficial strategy for developing therapeutics against DN.

[3] = LA1 1 mg/kg/d, ED7 4 mg/kg/d, 21 days
[4] = daily administration, fully diabetic animals

In the case of `O=C(O)c1ccc(-c2ccc(/C=C3\SC(=S)N(Cc4ccccc4)C3=O)o2)cc1` [LA1], the “neointimal hyperplasia vs vehicle” value ([1]; 0.05 or 1 mg/kg/d i.p., three weeks, SD male rats) is reported as “significantly less neointimal hyperplasia”, the “dose dependence of reduction in mechanical vascular injury” value ([1]; 0.05 vs 1 mg/kg/d i.p.) is reported as “dose-dependent reduction” and the “neointima formation compared to the ED7 group” value ([1]; LA1 1 mg/kg/d vs ED7 4 mg/kg/d, 21 days) is reported as “significantly less neointima formation”. For the same molecule, the “neointimal hyperplasia (NIH) / mechanical vascular injury, significance vs control group” value [1, 3] was “significant reduction in neointimal hyperplasia”, the “neointimal thickening vs control mAb IgG1-treated group” value [1, 3] was “reduced neointimal thickening” and the bioavailability [2] was “bioavailable”. The “concentration of LA1 in plasma” value [2] was “high concentrations”, the levels in blood [2] was “micromolar levels” and the mean residence time [2] was “at least a few hours”. The “adhesion of K562 WT cells to immobilized fibrinogen” value (CD11b/CD18) was “significantly increased”, the “glomerular damage and glomerular mesangial sclerosis” value (Diabetic nephropathy; BTBR ob/ob mouse model) was “reduced glomerular damage and glomerular mesangial sclerosis” and the kidney function (Diabetic nephropathy; [4]) was “preserved kidney function”. For the same molecule, the “number of infiltrating leukocytes in the kidney” value (Diabetic nephropathy; [4]) was “significantly reduced the number of infiltrating leukocytes”.
